Reference: patent US6818426B2 (Daicel Chemical Industries, Ltd., priority 2000, dated 2004)
Like-named read-outs stand apart in the source and are kept apart here.

Key:
[1] = system: (R)-2,3-butanediol dehydrogenase; assay: Behavior of (R)-2,3-butanediol dehydrogenase to reagents (residual glycerol dehydrogenase activity); type: biochemical, Pichia angusta; settings: for Inhibition of the enzyme by reagent (in words): treated at 30° C. for 10 minutes
Protocol: After treated with various reagents at 30° C. for 10 minutes, glycerol dehydrogenase activity was assayed.

[2] = system: recombinant (R)-2,3-butanediol dehydrogenase, HB101 (pSE-PAD1) cell extract; assay: Substrate specificity of recombinant enzyme, reduction reaction; type: biochemical, Pichia angusta; settings: substrate 20 mM; for HB101 (pSE-PAD1) Relative activity: dihydroxyacetone = 100%
Protocol: (§1) The bacterial cells were collected by centrifugal separation and then suspended in 100 mM potassium phosphate buffer (pH 8.0) containing 0.02% 2-mercaptoethanol; the bacterial cells were lysed by the treatment with a closed sonic chamber device UCD-200TM (Cosmo Bio) for 4 minutes. The bacterial cell lysate was separated by centrifugation and the resulting supernatant was recovered as a bacterial cell extract.

[3] = system: E. coli HB101 cell-free extract prepared in the absence of plasmid; assay: Host only cell-free extract, reduction reaction; type: biochemical; settings: substrate 20 mM
Protocol: as §1

[4] = system: recombinant (R)-2,3-butanediol dehydrogenase, HB101 (pSE-PAD1) cell extract; assay: Substrate specificity of recombinant enzyme, oxidation reaction; type: biochemical, Pichia angusta; settings: for HB101 (pSE-PAD1) Relative activity: glycerol = 100%
Protocol: The quantification of polypeptide is carried out by a dye-binding method using a protein assay kit from BioRad.
as §1

[5] = system: E. coli HB101 cell-free extract prepared in the absence of plasmid; type: biochemical
Protocol: as §1

[6] = target: glycerol dehydrogenase produced by Escherichia coli (Escherichia coli W-1485) (Escherichia coli, UniProt P0A9S5); settings: J. Biol. Chem., 259:2124-2129, 1984; cited from earlier work
[7] = system: (R)-2,3-butanediol dehydrogenase; assay: Substrate specificity of purified (R)-2,3-butanediol dehydrogenase (dehydrogenation activity); type: biochemical, Pichia angusta; settings: substrate 500 mM; glycerol dehydrogenation activity with NAD+ as coenzyme taken as 100; ND: not detectable
Protocol: The enzyme obtained in Example 1 was allowed to react with various reagents of 500 mM, and then the dehydrogenation activity was assayed.

[8] = system: (R)-2,3-butanediol dehydrogenase derived from Pichia angusta; assay: Coenzyme usability; type: biochemical; settings: NADP+ in oxidation reaction, NADPH in reduction reaction
Text: However, regardless of the usability of NADP^+ and NADPH, an enzyme having the above-mentioned physicochemical properties (1) to (3), preferably (1) to (6), and even more preferably (1) to (9) is included in the present invention.

[9] = system: (R)-2,3-butanediol dehydrogenase; assay: Stereoselectivity of purified (R)-2,3-butanediol dehydrogenase; type: biochemical, Pichia angusta
Protocol: The enzyme obtained in Example 1 was allowed to react with each of the two isomers 1,2-propanediol and 2,3-butanediol (500 mM each).

[10] = reagent 1 mM, 30° C. for 10 minutes, glycerol dehydrogenase activity
[11] = oxidation reaction, substrate 50 mM
[12] = oxidation reaction, substrate 100 mM

glycerol dehydrogenase produced by Escherichia coli (Escherichia coli W-1485), sequence (P0A9S5 whole entry): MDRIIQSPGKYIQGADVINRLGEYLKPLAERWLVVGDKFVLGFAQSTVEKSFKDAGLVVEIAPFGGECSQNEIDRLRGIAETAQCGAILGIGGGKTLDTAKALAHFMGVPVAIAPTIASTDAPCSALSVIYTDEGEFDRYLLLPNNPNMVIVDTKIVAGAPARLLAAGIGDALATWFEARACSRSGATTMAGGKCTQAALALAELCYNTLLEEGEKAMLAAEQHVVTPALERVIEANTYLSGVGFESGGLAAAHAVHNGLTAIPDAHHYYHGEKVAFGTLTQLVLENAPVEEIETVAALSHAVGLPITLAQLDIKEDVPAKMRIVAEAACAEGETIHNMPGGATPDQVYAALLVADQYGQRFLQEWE

Compound: [Cl][Co][Cl] [cobalt chloride]
- Residual activity [1, 10]: 102%

Compound: O=C(O)c1cc[c]([Hg][Cl])cc1 [PCMB, p-chloromercuribenzoic acid]
- Residual activity ([1]; reagent 0.1 mM, 30° C. for 10 minutes, glycerol dehydrogenase activity): 0%
- Inhibition of the enzyme by reagent (in words) [1]: markedly inhibited

Compound: CC(=O)C(C)=O [2,3-butanedion]
- HB101 (pSE-PAD1) activity [2]: 1.906 U/mg
- HB101 (pSE-PAD1) Relative activity [2]: 195%
- Host only activity [3]: 0.018 U/mg

Compound: C[C@H](O)[C@H](C)O [(2S,3S)-2,3-butanediol]
- HB101 (pSE-PAD1) activity ([4]; substrate 50 mM): 0.059 U/mg
- HB101 (pSE-PAD1) Relative activity ([4]; substrate 50 mM): 26.1%
- Host only activity [5, 11]: 0 U/mg

Compound: C[C@@H](O)[C@@H](C)O [(2R,3R)-2,3-butanediol]
- HB101 (pSE-PAD1) activity ([4]; substrate 50 mM): 1.414 U/mg
- HB101 (pSE-PAD1) Relative activity ([4]; substrate 50 mM): 620%
- Host only activity [5, 11]: 0 U/mg
- Vmax [6]: 28.0 U/mg protein

Compound: CCC(O)CO (stereo not drawn) [1,2-butanediol]
- Relative activity [7]: 130%

Compound: [Ba+2].[Cl-].[Cl-] [barium chloride]
- Residual activity [1]: 112%

Compound: CCC(C)=O [2-butanone]
- HB101 (pSE-PAD1) activity [2]: 0.008 U/mg
- HB101 (pSE-PAD1) Relative activity [2]: 0.8%
- Host only activity [3]: 0.002 U/mg

Compound: [Cl][Ni][Cl] [nickel chloride]
- Residual activity [1]: 99%

Compound: [Cl-].[Cl-].[Zn+2] [zinc chloride]
- Residual activity [1]: 113%

Compound: C[C@H](O)CCO [(S)-1,3-butanediol]
- HB101 (pSE-PAD1) activity ([4]; substrate 50 mM): 0.042 U/mg
- HB101 (pSE-PAD1) Relative activity ([4]; substrate 50 mM): 18.3%
- Host only activity [5, 11]: 0 U/mg

Compound: NNc1ccccc1 [Phenylhydrazine]
- Residual activity [1, 10]: 110%

Compound: [Cl][Fe]([Cl])[Cl] [iron (III) chloride]
- Residual activity [1, 10]: 0%
- Inhibition of the enzyme by reagent (in words) [1]: markedly inhibited

Compound: NC(=O)C1=CN([C@@H]2O[C@H](COP(=O)(O)OP(=O)(O)OC[C@H]3O[C@@H](n4cnc5c(N)ncnc54)[C@H](OP(=O)(O)O)[C@@H]3O)[C@@H](O)[C@H]2O)C=CC1 [NADPH]
- Usability as a coenzyme (in words) [8]: substantially impossible

Compound: CCC(O)CO (racemic) [(RS)-1,2-butanediol]
- HB101 (pSE-PAD1) activity ([4]; substrate 100 mM): 0.200 U/mg
- HB101 (pSE-PAD1) Relative activity ([4]; substrate 100 mM): 87.6%
- Host only activity [5, 12]: 0.002 U/mg

Compound: [Cl][Hg][Cl] [mercury chloride]
- Residual activity [1, 10]: 0%
- Inhibition of the enzyme by reagent (in words) [1]: markedly inhibited

Compound: C[C@H](O)CO [(S)-2,3-propanediol]
- Relative activity [9]: 160%

Compound: [Cl-].[Cl-].[Mg+2] [magnesium chloride]
- Residual activity [1]: 105%

Compound: OC[C@@H](O)CCl [(R)-3-chloro-1,2-propanediol]
- HB101 (pSE-PAD1) activity ([4]; substrate 50 mM): 0.002 U/mg
- HB101 (pSE-PAD1) Relative activity ([4]; substrate 50 mM): 0.9%
- Host only activity [5, 11]: 0 U/mg

Compound: O=C(O)CN(CCN(CC(=O)O)CC(=O)O)CC(=O)O [EDTA, ethylenediaminetetraacetic acid]
- Residual activity [1, 10]: 93%
- Inhibition of the enzyme by reagent (in words) [1]: not

Compound: C[C@@H](O)CO [(R)-1,2-propanediol]
- Relative activity [9]: 2000%
- HB101 (pSE-PAD1) activity ([4]; substrate 50 mM): 1.077 U/mg
- HB101 (pSE-PAD1) Relative activity ([4]; substrate 50 mM): 473%
- Host only activity [5, 11]: 0 U/mg

Compound: manganese chloride
- Residual activity [1]: 105%

Compound: [Cl][Fe][Cl] [iron (II) chloride]
- Residual activity [1, 10]: 163%

Compound: CC(=O)CO [Hydroxyacetone]
- HB101 (pSE-PAD1) activity [2]: 0.364 U/mg
- HB101 (pSE-PAD1) Relative activity [2]: 37.2%
- Host only activity [3]: 0 U/mg

Compound: c1ccc(-c2ccccn2)nc1 [2,2′-dipyridyl]
- Residual activity [1, 10]: 0%
- Inhibition of the enzyme by reagent (in words) [1]: markedly inhibited

Compound: [Ca+2].[Cl-].[Cl-] [calcium chloride]
- Residual activity [1]: 105%

Compound: [Cl][Cu][Cl] [copper chloride]
- Residual activity [1, 10]: 0%
- Inhibition of the enzyme by reagent (in words) [1]: markedly inhibited

Compound: C[C@@H](O)CCO [(R)-1,3-butanediol]
- HB101 (pSE-PAD1) activity ([4]; substrate 50 mM): 0.259 U/mg
- HB101 (pSE-PAD1) Relative activity ([4]; substrate 50 mM): 114%
- Host only activity [5, 11]: 0 U/mg

Compound: CC(O)C(C)O (stereo not drawn) [Meso-2,3-butanediol]
- HB101 (pSE-PAD1) activity ([4]; substrate 50 mM): 1.163 U/mg
- HB101 (pSE-PAD1) Relative activity ([4]; substrate 50 mM): 509%
- Host only activity [5, 11]: 0 U/mg

Compound: CC(O)CCO (stereo not drawn) [1,3-butanediol]
- Relative activity [7]: 58%

Compound: OC[C@H](O)CCl [(S)-3-chloro-1,2-propanediol]
- HB101 (pSE-PAD1) activity ([4]; substrate 50 mM): 0.057 U/mg
- HB101 (pSE-PAD1) Relative activity ([4]; substrate 50 mM): 24.8%
- Host only activity [5, 11]: 0.001 U/mg

Compound: CC(=O)CCO [4-hydroxy-2-butanone]
- HB101 (pSE-PAD1) activity [2]: 0.011 U/mg
- HB101 (pSE-PAD1) Relative activity [2]: 1.1%
- Host only activity [3]: 0.006 U/mg

Compound: CC(O)CO (stereo not drawn) [1,2-propanediol]
- Relative activity [7]: 700%

Compound: O=C(O)CI [iodoacetic acid]
- Residual activity [1]: 91%

Compound: (S)-2-butanol
- HB101 (pSE-PAD1) activity ([4]; substrate 50 mM): 0.024 U/mg
- HB101 (pSE-PAD1) Relative activity ([4]; substrate 50 mM): 10.7%
- Host only activity [5]: 0 U/mg

Compound: OCC(O)CO [Glycerol]
- Relative activity [7]: 100%
- Relative activity ([9]; substrate 500 mM, activity to glycerol taken as 100): 100%
- HB101 (pSE-PAD1) activity ([4]; substrate 100 mM): 0.228 U/mg
- HB101 (pSE-PAD1) Relative activity ([4]; substrate 100 mM): 100%
- Host only activity [5, 12]: 0 U/mg

Compound: (S)-1-amino-2-propanol
- HB101 (pSE-PAD1) activity ([4]; substrate 50 mM): 0.018 U/mg
- HB101 (pSE-PAD1) Relative activity ([4]; substrate 50 mM): 8.0%
- Host only activity [5]: 0.007 U/mg

Compound: [Cl-].[Li+] [lithium chloride]
- Residual activity [1, 10]: 101%

Compound: CC(O)C(C)O (stereo not drawn) [2,3-butanediol]
- Relative activity [7]: 3030%

Compound: NC(=O)c1ccc[n+]([C@@H]2O[C@H](COP(=O)([O-])OP(=O)(O)OC[C@H]3O[C@@H](n4cnc5c(N)ncnc54)[C@H](OP(=O)(O)O)[C@@H]3O)[C@@H](O)[C@H]2O)c1 [NADP^+]
- Usability as a coenzyme (in words) [8]: substantially impossible

Compound: C[C@H](O)CO [(S)-1,2-propanediol]
- Relative activity [9]: 400%
- HB101 (pSE-PAD1) activity ([4]; substrate 50 mM): 0.246 U/mg
- HB101 (pSE-PAD1) Relative activity ([4]; substrate 50 mM): 108%
- Host only activity [5, 11]: 0 U/mg

Compound: c1cnc2c(c1)ccc1cccnc12 [o-phenanthroline]
- Residual activity [1, 10]: 0%
- Inhibition of the enzyme by reagent (in words) [1]: markedly inhibited

Compound: (R)-1-amino-2-propanol
- HB101 (pSE-PAD1) activity ([4]; substrate 50 mM): 0.051 U/mg
- HB101 (pSE-PAD1) Relative activity ([4]; substrate 50 mM): 22.2%
- Host only activity [5]: 0.007 U/mg

Compound: O=C(O)c1cc(SSc2ccc([N+](=O)[O-])c(C(=O)O)c2)ccc1[N+](=O)[O-] [DTNB, 5,5′-dithiobis (2-nitrobenzoic acid)]
- Residual activity [1, 10]: 59%

Compound: (R)-2-butanol
- HB101 (pSE-PAD1) activity ([4]; substrate 50 mM): 0.022 U/mg
- HB101 (pSE-PAD1) Relative activity ([4]; substrate 50 mM): 9.6%
- Host only activity [5]: 0 U/mg

Compound: CC(=O)C(C)O (stereo not drawn) [3-hydroxy-2-butanone]
- HB101 (pSE-PAD1) activity ([4]; substrate 50 mM): 0.020 U/mg
- HB101 (pSE-PAD1) Relative activity ([4]; substrate 50 mM): 8.8%
- HB101 (pSE-PAD1) activity [2]: 0.696 U/mg
- HB101 (pSE-PAD1) Relative activity [2]: 71.2%
- Host only activity [5, 11]: 0.006 U/mg
- Host only activity [3]: 0.009 U/mg

Compound: C[C@@H](O)CO [(R)-2,3-propanediol]
- Relative activity [9]: 6100%
